What was measured:
Test in all cases: relative viability (nuclei count vs DMSO), 5 days (fraction); higher = more cells survive
Alpelisib + Bortezomib = compound: Cc1nc(NC(=O)N2CCC[C@H]2C(N)=O)sc1-c1ccnc(C(C)(C)C(F)(F)F)c1 [Alpelisib] + CC(C)C[C@H](NC(=O)[C@H](Cc1ccccc1)NC(=O)c1cnccn1)B(O)O [Bortezomib] (partner 0.002 µM)
Summary of the method: (§1)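 Values are medians from duplicate plates. Each reflects relative viability, defined as the nuclei count of treated wells over that of vehicle wells. Lung cancer cell lines in 1536-well plates were pin-tool dosed one day after seeding with one drug alone or with a fixed anchor-drug dose plus five library-drug doses (not always all listed) in √10 steps, then fixed, stained and imaged at 4× after 5 days.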

Vemurafenib + Olaparib = compound: CCCS(=O)(=O)Nc1ccc(F)c(C(=O)c2c[nH]c3ncc(-c4ccc(Cl)cc4)cc23)c1F [Vemurafenib] + O=C(c1cc(Cc2n[nH]c(=O)c3ccccc23)ccc1F)N1CCN(C(=O)C2CC2)CC1 [Olaparib] (partner 8 µM)
Summary of the method: as §1

Vemurafenib + Crizotinib = compound: CCCS(=O)(=O)Nc1ccc(F)c(C(=O)c2c[nH]c3ncc(-c4ccc(Cl)cc4)cc23)c1F [Vemurafenib] + C[C@@H](Oc1cc(-c2cnn(C3CCNCC3)c2)cnc1N)c1c(Cl)ccc(F)c1Cl [Crizotinib] (partner 1 µM)
Summary of the method: as §1

Alpelisib + Phenformin = compound: Cc1nc(NC(=O)N2CCC[C@H]2C(N)=O)sc1-c1ccnc(C(C)(C)C(F)(F)F)c1 [Alpelisib] + N=C(N)NC(=N)NCCc1ccccc1 [Phenformin] (partner 250 µM)
Summary of the method: as §1

Row | Cell Line | relative viability (Alpelisib + Bortezomib; first compound 0.04 µM) | relative viability (Alpelisib + Bortezomib; first compound 0.1265 µM) | relative viability (Alpelisib + Bortezomib; first compound 0.4 µM) | relative viability (Alpelisib + Bortezomib; first compound 1.265 µM) | relative viability (Alpelisib + Bortezomib; first compound 4 µM) | relative viability (Vemurafenib + Olaparib; first compound 0.03162 µM) | relative viability (Vemurafenib + Olaparib; first compound 0.1 µM) | relative viability (Vemurafenib + Olaparib; first compound 0.3162 µM) | relative viability (Vemurafenib + Olaparib; first compound 1 µM) | relative viability (Vemurafenib + Crizotinib; first compound 0.03162 µM) | relative viability (Vemurafenib + Crizotinib; first compound 0.1 µM) | relative viability (Vemurafenib + Crizotinib; first compound 0.3162 µM) | relative viability (Vemurafenib + Crizotinib; first compound 1 µM) | relative viability (Alpelisib + Phenformin; first compound 0.04 µM) | relative viability (Alpelisib + Phenformin; first compound 0.1265 µM) | relative viability (Alpelisib + Phenformin; first compound 0.4 µM) | relative viability (Alpelisib + Phenformin; first compound 1.265 µM) | relative viability (Alpelisib + Phenformin; first compound 4 µM)
1 | 201T | 1.1 | 1.08 | 1.18 | 1.08 | 1.09 | 0.828 | 0.806 | 0.86 | 0.828 | 0.997 | 0.993 | 1.09 | 1.02 | 0.437 | 0.485 | 0.428 | 0.348 | 0.349
2 | A549 |  |  |  |  |  | 0.315 | 0.323 | 0.186 | 0.249 | 0.704 | 0.717 | 0.743 | 0.717 | 0.147 | 0.21 | 0.172 | 0.16 | 0.115
3 | A-427 | 0.889 | 0.843 | 0.978 | 0.849 | 0.893 | 0.71 | 0.663 |  | 0.701 | 0.819 | 0.983 | 0.919 | 0.815 | 0.354 | 0.212 | 0.329 | 0.26 | 0.243
4 | ABC-1 | 0.312 | 0.295 | 0.268 | 0.363 | 0.266 | 1.12 | 0.8 | 0.6 | 0.93 | 1.01 | 1.21 | 1.2 | 0.997 | 0.256 | 0.252 | 0.211 | 0.233 | 0.222
5 | BEN | 0.793 | 0.733 | 0.807 | 0.761 | 0.697 | 0.971 | 0.992 | 0.653 | 1.06 | 0.812 | 0.9 | 0.603 | 0.817 | 0.262 | 0.239 | 0.267 | 0.296 | 0.281
6 | CAL-12T | 1.08 |  | 0.952 |  | 0.718 | 0.686 | 0.663 | 0.83 | 0.829 | 0.759 | 0.644 | 0.592 | 0.689 | 0.545 | 0.593 | 0.699 | 0.543 | 0.494
7 | COR-L23 | 0.945 | 0.976 | 1.13 | 0.798 | 0.802 | 0.332 | 0.353 | 0.298 | 0.341 | 0.6 | 0.524 | 0.597 | 0.59 | 0.388 | 0.414 | 0.49 | 0.402 | 0.36
8 | COR-L 105 | 0.92 | 0.86 | 1.33 | 0.735 | 0.782 | 0.617 |  | 0.742 | 0.734 | 0.623 |  | 0.661 | 1.13 | 0.446 | 0.593 | 0.669 | 0.416 | 0.415
9 | Calu-6 | 0.952 | 0.827 | 1.1 | 0.852 | 1.03 |  | 0.593 | 0.549 | 0.471 | 0.595 | 0.808 | 0.783 | 0.668 |  |  |  |  | 
10 | ChaGo-K-1 | 0.921 |  | 1.07 | 0.839 | 0.791 | 0.404 | 0.4 | 0.49 | 0.382 | 1.07 | 1.14 |  | 1.13 | 0.495 | 0.495 | 0.453 | 0.435 | 0.346

Reference: the supplement of paper PMC10307832
